Assay results from ChEMBL document CHEMBL1201862, “PubChem BioAssay data set” (2004).
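A five-concentration, 48-hour dose response in 96-well plates underlies each endpoint, interpolated linearly between surrounding concentrations. GI50: concentration for 50% inhibition of growth.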 Active and inactive are the calls of the source. Cut-off read from the data, not from the text of the source: active = GI50 up to about 1.1 µM and inactive = higher.

Experiments:
Assay in all cases: DTP human tumour cell line panel, 48 h
[1] = test system: LOX IMVI
[2] = test system: A549
[3] = test system: SR
[4] = test system: TK-10
[5] = test system: NCI-H23
[6] = test system: IGROV-1
[7] = test system: CAKI-1
[8] = test system: COLO 205
[9] = test system: HOP-92
[10] = test system: UO-31
[11] = test system: ACHN
[12] = test system: HCT-15
[13] = test system: RXF 393
[14] = test system: HOP-62
[15] = test system: HL-60
[16] = test system: SF-539
[17] = test system: SNB-19
[18] = test system: MDA-N
[19] = test system: DU-145
[20] = test system: Hs-578T

SMILES	GI50 [1]	GI50 [2]	GI50 [3]	GI50 [4]	GI50 [5]	GI50 [6]	GI50 [7]	GI50 [8]	GI50 [9]	GI50 [10]	GI50 [11]	GI50 [12]	GI50 [13]	GI50 [14]	GI50 [15]	GI50 [16]	GI50 [17]	GI50 [18]	GI50 [19]	GI50 [20]
COC(=O)C(=O)C(C(=O)C(=O)Nc1cc([N+](=O)[O-])ccc1C#N)c1nc2ccccc2nc1O (stereo not drawn)	> 100 µM (inactive)	> 100 µM (inactive)	> 100 µM (inactive)	> 100 µM (inactive)	> 100 µM (inactive)	> 100 µM (inactive)	> 100 µM (inactive)	> 100 µM (inactive)	40.6 µM (inactive)	99.3 µM (inactive)	> 100 µM (inactive)	> 100 µM	> 100 µM (inactive)	> 100 µM (inactive)	> 100 µM (inactive)	> 100 µM (inactive)	> 100 µM (inactive)	–	–	–
O=C1NC(=O)/C(=C\c2ccncc2)N1	> 100 µM (inactive)	> 100 µM (inactive)	–	> 100 µM (inactive)	> 100 µM (inactive)	> 100 µM (inactive)	> 100 µM (inactive)	> 100 µM (inactive)	> 100 µM (inactive)	> 100 µM (inactive)	> 100 µM (inactive)	> 100 µM	–	> 100 µM (inactive)	> 10 µM (inactive)	> 100 µM (inactive)	> 100 µM (inactive)	> 100 µM (inactive)	> 100 µM (inactive)	–
Nc1cnc2c(c1)c(=O)nc1n2CCS1	> 100 µM (inactive)	> 100 µM (inactive)	–	> 100 µM (inactive)	> 100 µM (inactive)	–	72.4 µM (inactive)	> 100 µM (inactive)	> 100 µM (inactive)	64 µM (inactive)	> 100 µM (inactive)	> 100 µM	> 100 µM (inactive)	> 100 µM (inactive)	> 100 µM (inactive)	> 100 µM (inactive)	> 100 µM (inactive)	> 100 µM (inactive)	> 100 µM (inactive)	–
Nc1ccccc1-n1c2c(c3ccccc3c1=O)C(=O)c1ccccc1-2	12.5 µM (inactive)	11.5 µM (inactive)	–	> 10 µM (inactive)	7.5 µM (inactive)	9.68 µM (inactive)	16.7 µM (inactive)	26.1 µM (inactive)	16.6 µM (inactive)	11.1 µM (inactive)	5.53 µM (inactive)	38 µM	–	7.14 µM (inactive)	0.046 µM (active)	3.13 µM (inactive)	5 µM (inactive)	–	34 µM (inactive)	–
CC1=C(C(=O)Nc2ccccc2)C(c2ccc(C(C)C)cc2)C(C(=O)Nc2ccccc2)=C(C)N1	15 µM (inactive)	16.5 µM (inactive)	10.6 µM (inactive)	48.2 µM (inactive)	20 µM (inactive)	23.2 µM (inactive)	21.9 µM (inactive)	12.9 µM (inactive)	14.2 µM (inactive)	12.5 µM (inactive)	17.3 µM (inactive)	14.8 µM	11.8 µM (inactive)	25.3 µM (inactive)	9.59 µM (inactive)	12.8 µM (inactive)	29.4 µM (inactive)	–	–	–
C=Cc1ccccc1C1C(C(=O)OCC)=C(C)N=C2OC(C(=O)OC)C(=O)N21 (stereo not drawn)	> 100 µM (inactive)	> 100 µM (inactive)	> 100 µM (inactive)	> 100 µM (inactive)	> 100 µM (inactive)	> 100 µM (inactive)	> 100 µM (inactive)	> 100 µM (inactive)	> 100 µM (inactive)	> 100 µM (inactive)	> 100 µM (inactive)	> 100 µM	> 100 µM (inactive)	> 100 µM (inactive)	87.5 µM (inactive)	> 100 µM (inactive)	> 100 µM (inactive)	> 100 µM (inactive)	> 100 µM (inactive)	–
Cc1ccc(C(=O)/C=C(\O)C(=O)NC23CC4CC(CC(C4)C2)C3)cc1	0.851 µM (active)	> 10 µM (inactive)	3.62 µM (inactive)	> 10 µM (inactive)	5.43 µM (inactive)	–	> 10 µM (inactive)	> 10 µM (inactive)	> 10 µM (inactive)	–	–	6.27 µM	> 10 µM (inactive)	6.7 µM (inactive)	4.25 µM (inactive)	–	–	> 10 µM (inactive)	9.95 µM (inactive)	–
N#CCCC(CC#N)N1CCN(CCO)CC1 (stereo not drawn)	–	> 100 µM (inactive)	> 100 µM (inactive)	> 100 µM (inactive)	> 100 µM (inactive)	> 100 µM (inactive)	–	> 100 µM (inactive)	> 100 µM (inactive)	> 100 µM (inactive)	> 100 µM (inactive)	> 100 µM	> 100 µM (inactive)	> 100 µM (inactive)	> 100 µM (inactive)	> 100 µM (inactive)	> 100 µM (inactive)	–	> 100 µM (inactive)	61.4 µM (inactive)
O=C(O)CCC(NC(=O)c1ccc(CNc2nc3cc(C(F)(F)F)ccc3nc2C(=O)O)cc1)C(=O)O (stereo not drawn)	> 100 µM (inactive)	> 100 µM (inactive)	> 100 µM (inactive)	> 100 µM (inactive)	> 100 µM (inactive)	> 100 µM (inactive)	> 100 µM (inactive)	> 100 µM (inactive)	> 100 µM (inactive)	> 100 µM (inactive)	> 100 µM (inactive)	> 100 µM	> 100 µM (inactive)	> 100 µM (inactive)	> 100 µM (inactive)	> 100 µM (inactive)	> 100 µM (inactive)	> 100 µM (inactive)	> 100 µM (inactive)	–
BrC(c1cccc2ccccc12)c1cccc2ccccc12	15.8 µM (inactive)	26.4 µM (inactive)	> 100 µM (inactive)	29 µM (inactive)	19.9 µM (inactive)	13.8 µM (inactive)	22.2 µM (inactive)	–	13.5 µM (inactive)	26.8 µM (inactive)	21.9 µM (inactive)	17.7 µM	13.6 µM (inactive)	14.1 µM (inactive)	20 µM (inactive)	–	43.4 µM (inactive)	15.1 µM (inactive)	13.6 µM (inactive)	–
COc1ccc2c(c1)/C(=C\c1cccc(/C=C3/C(=O)Nc4ccc(OC)cc43)n1)C(=O)N2	–	3.05 µM (inactive)	–	1.73 µM (inactive)	0.925 µM (active)	–	1.99 µM (inactive)	0.33 µM (active)	2.25 µM (inactive)	1.67 µM (inactive)	1.71 µM (inactive)	1.56 µM	0.942 µM (active)	1.55 µM (inactive)	0.506 µM (active)	1.42 µM (inactive)	0.805 µM (active)	–	2.1 µM (inactive)	4.35 µM (inactive)
c1ccc2c(c1)[nH]c1c[nH]c3c4cccnc4nc-3c12	19.5 µM (inactive)	20 µM (inactive)	17.7 µM (inactive)	12.7 µM (inactive)	25.5 µM (inactive)	18.1 µM (inactive)	14.5 µM (inactive)	15 µM (inactive)	28.2 µM (inactive)	15.3 µM (inactive)	11.3 µM (inactive)	15.3 µM	18.7 µM (inactive)	29.9 µM (inactive)	17.5 µM (inactive)	21.4 µM (inactive)	18.3 µM (inactive)	–	–	–
